Experimental data: patent US20090180956A1, “DIAGNOSTIC FOR EVALUATING GASTRIC EVACUATION FUNCTION AND/OR SMALL INTESTINAL ABSORPTION FUNCTION” (priority 2006, published 2009)
Like-named read-outs stand apart in the source and are kept apart here. Blank lines part the entries; values can stand above or below the molecule they belong to.

How the values were obtained:
[1] = 2 mg/ml/kg into the duodenum
Description: (§1) Briefly, the breath was collected at a rate of about 100 to 300 ml/min using a stroke pump (Variable Stroke Pump VS-500; Shibata Kagaku Kogyo), and the CO2 concentration therein was maintained at about 3%. A Perma Pure Drier (MD-050-12P; Perma Pure INC.) was set between the rat holder and the stroke pump to remove moisture from the breath. When the CO2 concentration was stabilized, the rat under anesthesia was subjected to a laparotomy. After ligation of the pylorus, [1,4-^13C]-succinic acid solution was injected into the duodenum with an injection syringe (1 ml) to thereby achieve administration into the duodenum. A breath sample ([…]) collected with the syringe was sealed in a vacuum vial (10 ml) and subjected to automated analysis by GC-MS (Breath MAT) [FinniganMAT]. Δ^13C (‰) was calculated from δ^13C values which are ^13C values of the breath sample (i.e. differences from the standard substance PDB) using the following formula.
Falling out of small intestinal villi was induced in Wistar male rats (9 week-old; n=4; Nippon Charles River) by repeatedly injecting injectable methotrexate (MTX; Takeda Chemical Industries) dissolved in physiological saline between the back and the skull subcutaneously at 2.5 mg/kg/day (see J. Nutr. Vol. 126, p. 2519 (1996); Scand. J. Gastroenterol. Vol. 39 p. 1015 (2004)). The conditions of the repeated administration were 3 day administration, 2 day interval and 3 day administration (total administration period: 6 days) (MTX administration group; n=4). Non-administration group (n=2) was also tested as control group.
On day 9 after the start of MTX administration, [1,4-^13C]-succinic acid (ICON) was administered into the duodenum of overnight-fasted rats under anesthesia at 2 mg/ml/kg to perform a breath test.

[2] = 4 mg/ml/kg femoral vein
Description: (§2) Briefly, STZ was administered to 2-day postnatal rats subcutaneously at a dose of 90 mg/kg. STZ was dissolved in citrate buffer (pH 4.5) in advance, and administration was completed within 5 minutes after the dissolving. Two days thereafter, a blood sample was collected from the heart and subjected to measurement of casual plasma glucose with Terumo Mediace (blood glucose measuring set). Individuals showing a level of 275 mg/dl or more were selected.
(§3) The time course of the increase ratio of ^13C concentration (Δ^13C (‰)) in exhaled CO2 after administration was examined for 20 minutes, and plotted every 5 minutes.

[3] = 2 mg/ml/kg into the duodenum; remark: listed apart in the source
Description: Overnight-fasted Wistar male rats (8 week-old; Nippon Charles River) were subjected to a laparotomy under anesthesia and treated as follows: (1) ligated at 3 cm from the pylorus (n=1), (2) ligated at 6 cm from the pylorus (n=1), and (3) not ligated (no treatment) (n=2).
[1,4-^13C]-succinic acid (ICON) was administered into the duodenum upstream of the ligation at 2 mg/ml/kg. The breath after the administration was collected.
as §1
Δ^13C (‰)=(δ^13C)t min−(δ^13 C) 0 min (Formula 1)
• Apparatus: Breath MAT plus (Finnigan) • Carrier gas: He • Measured ions: m/z=44, 45, 46

[4] = 13C-labeled sodium acetate breath test, diabetic model rats (nSTZ group) versus control group; details: 10 mg/ml/kg femoral vein
Description: as §2, §3

[5] = rat, in vivo, 2000 mg/kg; cited from earlier work

increase ratio of 13C concentration (Δ13C) in exhaled CO2 ([1]; MTX administration group, at 15 minutes): 68±37 ‰
increase ratio of 13C concentration (Δ13C) in exhaled CO2 ([1]; control group (MTX non-administration), at 10 minutes): 154 ‰
increase ratio of 13C concentration (Δ13C) in exhaled CO2 ([1]; control group (MTX non-administration), at 20 minutes): 81 ‰
difference in Δ13C between control group and nSTZ group ([2]; 20 minutes breath test): no difference was observed
increase ratio of 13C concentration (Δ13C) in exhaled CO2 ([2]; control group, at 5 minutes): 193±20 ‰
increase ratio of 13C concentration (Δ13C) in exhaled CO2 ([2]; control group, at 20 minutes): 99±4 ‰
increase ratio of 13C concentration (Δ13C) in exhaled CO2 ([2]; nSTZ group, at 5 minutes): 202±28 ‰
increase ratio of 13C concentration (Δ13C) in exhaled CO2 ([2]; nSTZ group, at 20 minutes): 93±4 ‰
increase ratio of 13C concentration (Δ13C) in exhaled CO2 ([3]; not ligated rats, at 6 minutes): 130 ‰
increase ratio of 13C concentration (Δ13C) in exhaled CO2 ([3]; not ligated rats, at 15 minutes): 95 ‰
increase ratio of 13C concentration (Δ13C) in exhaled CO2 ([3]; rat ligated at 3 cm from the pylorus, at 4 minutes): 14 ‰
increase ratio of 13C concentration (Δ13C) in exhaled CO2 ([3]; rat ligated at 3 cm from the pylorus, at 6 minutes): 30 ‰
increase ratio of 13C concentration (Δ13C) in exhaled CO2 ([3]; rat ligated at 3 cm from the pylorus, at 16 minutes): 71 ‰
increase ratio of 13C concentration (Δ13C) in exhaled CO2 ([3]; rat ligated at 6 cm from the pylorus, at 4 minutes): 33 ‰
increase ratio of 13C concentration (Δ13C) in exhaled CO2 ([3]; rat ligated at 6 cm from the pylorus, at 6 minutes): 57 ‰
increase ratio of 13C concentration (Δ13C) in exhaled CO2 ([3]; rat ligated at 6 cm from the pylorus, at 16 minutes): 96 ‰
Compound: O=[13C](O)CC[13C](=O)O [[1,4-^13C]-succinic acid]

Compound: C[13C](=O)[O-].[Na+] [[1-^13C]-sodium acetate]
increase ratio of 13C concentration (Δ13C) in exhaled CO2 ([4]; control group, at 5 minutes): 154±11 ‰
increase ratio of 13C concentration (Δ13C) in exhaled CO2 ([4]; control group, at 20 minutes): 153±5 ‰
increase ratio of 13C concentration (Δ13C) in exhaled CO2 ([4]; nSTZ group, at 5 minutes): 214±30 ‰
increase ratio of 13C concentration (Δ13C) in exhaled CO2 ([4]; nSTZ group, at 20 minutes): 133±2 ‰
difference in Δ13C between control group and nSTZ group ([4]; values at 5 minutes and at 20 minutes): Significant difference (p<0.005)

Compound: O=C(O)CCC(=O)O [disodium succinate hexahydrate]
abnormalities in single administration toxicity test [5]: does not cause abnormalities
